Data published in the NIST ThermoML archive (doi:10.1016/j.jct.2015.04.028).
± gives the expanded uncertainty stated by the source.

Conditions: Gas, Vibrating wire viscometry

[He] [helium]
Conditions | viscosity [mPa·s]
296.26 K, 100.3 kPa | 0.01964 ± 0.00093
296.26 K, 332.1 kPa | 0.01983 ± 0.00093
296.26 K, 500.3 kPa | 0.01979 ± 0.00093
296.26 K, 716 kPa | 0.01982 ± 0.00093
322.56 K, 110.1 kPa | 0.02084 ± 0.00094
322.56 K, 306.5 kPa | 0.02096 ± 0.00094
322.56 K, 521.2 kPa | 0.02101 ± 0.00094
322.56 K, 723 kPa | 0.021 ± 0.00094
373.12 K, 111.6 kPa | 0.02307 ± 0.00095
373.12 K, 307.1 kPa | 0.02314 ± 0.00095
373.12 K, 504.2 kPa | 0.02318 ± 0.00095
373.12 K, 698.5 kPa | 0.02322 ± 0.00095
472.08 K, 111.5 kPa | 0.02712 ± 0.00098
472.08 K, 313.7 kPa | 0.02727 ± 0.00099
472.08 K, 504.9 kPa | 0.02725 ± 0.00099
472.08 K, 717.7 kPa | 0.02732 ± 0.00099
572.96 K, 111.1 kPa | 0.03107 ± 0.001
572.96 K, 309.7 kPa | 0.03119 ± 0.001
572.96 K, 514.3 kPa | 0.03119 ± 0.001
572.96 K, 721.7 kPa | 0.03123 ± 0.001

[HH] [hydrogen]
Conditions | viscosity [mPa·s]
296.26 K, 102.8 kPa | 0.0089 ± 0.00084
296.26 K, 305.3 kPa | 0.00897 ± 0.00084
296.26 K, 501 kPa | 0.009 ± 0.00084
296.26 K, 700.6 kPa | 0.00902 ± 0.00084
322.56 K, 111 kPa | 0.00941 ± 0.00085
322.56 K, 302.4 kPa | 0.00946 ± 0.00085
322.56 K, 502 kPa | 0.00949 ± 0.00085
322.56 K, 698 kPa | 0.00951 ± 0.00085
373.12 K, 111.6 kPa | 0.01041 ± 0.00086
373.12 K, 301.2 kPa | 0.01047 ± 0.00086
373.12 K, 503.1 kPa | 0.01048 ± 0.00086
373.12 K, 701.4 kPa | 0.0105 ± 0.00086
472.13 K, 111.4 kPa | 0.01209 ± 0.00087
472.13 K, 298.9 kPa | 0.01214 ± 0.00087
472.13 K, 500.1 kPa | 0.01215 ± 0.00087
472.13 K, 701.1 kPa | 0.01216 ± 0.00087
573.48 K, 98.9 kPa | 0.01416 ± 0.00088
573.48 K, 298.2 kPa | 0.0142 ± 0.00088
573.48 K, 503 kPa | 0.01427 ± 0.00089
573.48 K, 701.6 kPa | 0.01425 ± 0.00088

N#N [nitrogen]
Conditions | viscosity [mPa·s]
296.26 K, 99.9 kPa | 0.01766 ± 0.00091
296.26 K, 312.6 kPa | 0.01773 ± 0.00091
297.05 K, 500.9 kPa | 0.01783 ± 0.00091
297.05 K, 700.9 kPa | 0.01789 ± 0.00091
322.56 K, 109.8 kPa | 0.01884 ± 0.00092
322.56 K, 307.3 kPa | 0.01892 ± 0.00092
322.56 K, 500.7 kPa | 0.01899 ± 0.00092
322.56 K, 701.2 kPa | 0.01904 ± 0.00092
373.12 K, 111.2 kPa | 0.02104 ± 0.00094
373.12 K, 300.6 kPa | 0.02109 ± 0.00094
373.12 K, 503.2 kPa | 0.02119 ± 0.00094
373.12 K, 694.5 kPa | 0.02121 ± 0.00094
472.1 K, 110.2 kPa | 0.02498 ± 0.00097
472.1 K, 309.7 kPa | 0.025 ± 0.00097
472.1 K, 505.8 kPa | 0.02509 ± 0.00097
472.1 K, 703.4 kPa | 0.02513 ± 0.00097
572.98 K, 111.7 kPa | 0.02864 ± 0.001
572.98 K, 316.1 kPa | 0.02867 ± 0.001
572.98 K, 502 kPa | 0.02871 ± 0.001
572.98 K, 703.4 kPa | 0.02868 ± 0.001
